Results reported in ChEMBL document CHEMBL1153245, “A profile of the in vitro anti-tumor activity of imidazolium-based ionic liquids” (2010).

Tests used:
Assay type in all cases: functional
NCI-H522 = assay: Anticancer activity against human NCI-H522 cells after 48 hrs by sulforhodamine B assay
MOLT-4 = assay: Anticancer activity against human MOLT4 cells assessed cell growth at 10 uM after 48 hrs by sulforhodamine B assay relative to control
A498 [1] = assay: Anticancer activity against human A498 cells after 48 hrs by sulforhodamine B assay; settings: Homo sapiens, A498, 48 h
NCI/ADR-RES [2] = assay: Anticancer activity against human NCI/ADR-RES cells assessed cell growth at 10 uM after 48 hrs by sulforhodamine B assay relative to control
A498 [3] = assay: Anticancer activity against human A498 cells assessed cell growth at 10 uM after 48 hrs by sulforhodamine B assay relative to control
DU-145 = assay: Anticancer activity against human DU145 cells after 48 hrs by sulforhodamine B assay; settings: Homo sapiens, DU-145, 48 h
MDA-MB-231 = assay: Anticancer activity against human MDA-MB-231 cells after 48 hrs by sulforhodamine B assay
HOP-62 = assay: Anticancer activity against human HOP62 cells after 48 hrs by sulforhodamine B assay; settings: Homo sapiens, HOP-62, 48 h
SF-295 = assay: Anticancer activity against human SF295 cells after 48 hrs by sulforhodamine B assay; settings: Homo sapiens, SF-295, 48 h
NCI-H226 [4] = assay: Anticancer activity against human NCI-H226 cells assessed cell growth at 10 uM after 48 hrs by sulforhodamine B assay relative to control
CCRF-CEM = assay: Anticancer activity against human CCRF-CEM cells after 48 hrs by sulforhodamine B assay; settings: Homo sapiens, CCRF-CEM, 48 h
EKVX = assay: Anticancer activity against human EKVX cells after 48 hrs by sulforhodamine B assay; settings: Homo sapiens, EKVX, 48 h
OVCAR-4 = assay: Anticancer activity against human OVCAR4 cells after 48 hrs by sulforhodamine B assay
UACC-62 [5] = assay: Anticancer activity against human UACC62 cells after 48 hrs by sulforhodamine B assay; settings: Homo sapiens, UACC-62, 48 h
T47D = assay: Anticancer activity against human T47D cells after 48 hrs by sulforhodamine B assay; settings: Homo sapiens, T47D, 48 h
UO-31 = assay: Anticancer activity against human UO31 cells after 48 hrs by sulforhodamine B assay; settings: Homo sapiens, UO-31, 48 h
K562 = assay: Anticancer activity against human K562 cells assessed cell growth at 10 uM after 48 hrs by sulforhodamine B assay relative to control
UACC-62 [6] = assay: Anticancer activity against human UACC62 cells assessed cell growth at 10 uM after 48 hrs by sulforhodamine B assay relative to control
COLO 205 = assay: Anticancer activity against human COLO205 cells assessed cell growth at 10 uM after 48 hrs by sulforhodamine B assay relative to control
LOX IMVI = assay: Anticancer activity against human LOXIMVI cells after 48 hrs by sulforhodamine B assay
HT-29 = assay: Anticancer activity against human HT-29 cells assessed cell growth at 10 uM after 48 hrs by sulforhodamine B assay relative to control
SF-268 = assay: Anticancer activity against human SF268 cells after 48 hrs by sulforhodamine B assay; settings: Homo sapiens, SF-268, 48 h
UACC-257 = assay: Anticancer activity against human UACC257 cells after 48 hrs by sulforhodamine B assay
A549 = assay: Anticancer activity against human A549 cells assessed cell growth at 10 uM after 48 hrs by sulforhodamine B assay relative to control
M14 = assay: Anticancer activity against human M14 cells assessed cell growth at 10 uM after 48 hrs by sulforhodamine B assay relative to control
SW-620 = assay: Anticancer activity against human SW620 cells after 48 hrs by sulforhodamine B assay; settings: Homo sapiens, SW-620, 48 h
SNB-75 = assay: Anticancer activity against human SNB75 cells after 48 hrs by sulforhodamine B assay
OVCAR-3 [7] = assay: Anticancer activity against human OVCAR-3 cells after 48 hrs by sulforhodamine B assay; settings: Homo sapiens, OVCAR-3, 48 h
[8] = Anticancer activity against human Hs 578T cells after 48 hrs by sulforhodamine B assay; settings: Homo sapiens, Hs-578T, 48 h
OVCAR-3 [9] = assay: Anticancer activity against human OVCAR-3 cells assessed cell growth at 10 uM after 48 hrs by sulforhodamine B assay relative to control
NCI/ADR-RES [10] = assay: Anticancer activity against human NCI/ADR-RES cells after 48 hrs by sulforhodamine B assay; settings: Homo sapiens, NCI/ADR-RES, 48 h
CAKI-1 = assay: Anticancer activity against human Caki1 cells after 48 hrs by sulforhodamine B assay; settings: Homo sapiens, CAKI-1, 48 h
786-0 = assay: Anticancer activity against human 786-0 cells after 48 hrs by sulforhodamine B assay; settings: Homo sapiens, 786-0, 48 h
SR = assay: Anticancer activity against human SR cells assessed cell growth at 10 uM after 48 hrs by sulforhodamine B assay relative to control
SK-MEL-5 [11] = assay: Anticancer activity against human SK-MEL-5 cells assessed cell growth at 10 uM after 48 hrs by sulforhodamine B assay relative to control
NCI-H460 = assay: Anticancer activity against human NCI-H460 cells after 48 hrs by sulforhodamine B assay; settings: Homo sapiens, NCI-H460, 48 h
SK-MEL-5 [12] = assay: Anticancer activity against human SK-MEL-5 cells after 48 hrs by sulforhodamine B assay; settings: Homo sapiens, SK-MEL-5, 48 h
HCC 2998 = assay: Anticancer activity against human HCC2998 cells assessed cell growth at 10 uM after 48 hrs by sulforhodamine B assay relative to control
SNB-19 = assay: Anticancer activity against human SNB19 cells after 48 hrs by sulforhodamine B assay
NCI-H226 [13] = assay: Anticancer activity against human NCI-H226 cells after 48 hrs by sulforhodamine B assay; settings: Homo sapiens, NCI-H226, 48 h
PC-3 = assay: Anticancer activity against human PC3 cells after 48 hrs by sulforhodamine B assay; settings: Homo sapiens, PC-3, 48 h
[14] = read-out: LC50 (the source's name)

CCCCCCCCCCCCCCCCCC[n+]1ccn(C)c1.[Cl-]
GI50 (NCI-H522): 0.364 µM | LC50 (NCI-H522; Homo sapiens, NCI-H522, 48 h): 6.45 µM | Activity (MOLT-4): 16.78% | GI50 (A498 [1]): 1.07 µM | CC50 (A498 [1]; [14]): 8.94 µM | Activity (NCI/ADR-RES [2]): 20.86% | Activity (A498 [3]): -50.94% | GI50 (DU-145): 0.635 µM | CC50 (DU-145; [14]): 4.4 µM | GI50 (MDA-MB-231): 0.449 µM | CC50 (MDA-MB-231; Homo sapiens, MDA-MB-231, 48 h, read-out: LC50 (the source's name)): 4.86 µM | GI50 (HOP-62): 0.967 µM | CC50 (HOP-62; [14]): 7.8 µM | GI50 (SF-295): 0.332 µM | CC50 (SF-295; [14]): 5.59 µM | Activity (NCI-H226 [4]): -54.04% | GI50 (CCRF-CEM): 0.127 µM | LC50 (CCRF-CEM): 0.72 µM | GI50 (EKVX): 0.649 µM | CC50 (EKVX; [14]): 7.78 µM | GI50 (OVCAR-4; Homo sapiens, OVCAR-4, 48 h): 0.778 µM | CC50 (OVCAR-4; [14]): > 100 µM | GI50 (UACC-62 [5]): 0.848 µM | LC50 (UACC-62 [5]): 5.07 µM | GI50 (T47D): 0.546 µM | CC50 (T47D; [14]): > 100 µM | GI50 (UO-31): 0.608 µM | LC50 (UO-31): 5.94 µM | Activity (K562): 28.31% | Activity (UACC-62 [6]): -70.86% | Activity (COLO 205): 1.82% | GI50 (LOX IMVI): 0.189 µM | CC50 (LOX IMVI; [14]): 1.48 µM | Activity (HT-29): -42.14% | GI50 (SF-268): 0.978 µM | CC50 (SF-268; [14]): 5.88 µM | GI50 (UACC-257): 0.125 µM | LC50 (UACC-257; Homo sapiens, UACC-257, 48 h): 6.77 µM | Activity (A549): -15.21% | Activity (M14): -33.7% | GI50 (SW-620): 0.446 µM | LC50 (SW-620): 4.72 µM | GI50 (SNB-75): 0.473 µM | CC50 (SNB-75; Homo sapiens, SNB-75, 48 h, read-out: LC50 (the source's name)): 7.41 µM | GI50 (OVCAR-3 [7]): 0.375 µM | LC50 (50% lethal concentration) (OVCAR-3 [7]): 4.01 µM | GI50 [8]: 0.335 µM | CC50 [8, 14]: 6.31 µM | Activity (OVCAR-3 [9]): -48.71% | GI50 (NCI/ADR-RES [10]): 1.66 µM | LC50 (NCI/ADR-RES [10]): > 100 µM | GI50 (CAKI-1): 0.429 µM | LC50 (CAKI-1): 7.45 µM | GI50 (786-0): 0.669 µM | LC50 (50% lethal concentration) (786-0): 6.02 µM | Activity (SR): 4.33% | Activity (SK-MEL-5 [11]): -81.11% | GI50 (NCI-H460): 0.405 µM | LC50 (NCI-H460): 3.92 µM | GI50 (SK-MEL-5 [12]): 0.414 µM | CC50 (SK-MEL-5 [12]; [14]): 3.97 µM | Activity (HCC 2998): -80.71% | GI50 (SNB-19; Homo sapiens, SNB-19, 48 h): 1.22 µM | CC50 (SNB-19; [14]): > 100 µM | GI50 (NCI-H226 [13]): 0.869 µM | LC50 (NCI-H226 [13]): 5.99 µM | GI50 (PC-3): 0.212 µM | CC50 (PC-3; [14]): 2.85 µM
